Reference: the CheMixHub viscosity set
“And” between values parts separate entries of the source, which are not always exact repeats. Equal entries are not always repeated. ± gives the uncertainty stated by the source.

CCCC(=O)O
viscosity (293.15 K, 101 kPa): 1.778 ± 0.047 mPa·s and 1.54 ± 0.04 mPa·s and 1.78 ± 0.05 mPa·s | viscosity (293.15 K, 101.33 kPa): 1.623 ± 0.016 mPa·s | viscosity (303.15 K, 101 kPa): 1.296 ± 0.062 mPa·s and 1.331 ± 0.016 mPa·s and 1.33 ± 0.034 mPa·s | viscosity (313.15 K, 101 kPa): 1.12 ± 0.029 mPa·s | viscosity (313.15 K, 101.33 kPa): 1.184 ± 0.012 mPa·s | viscosity (323.15 K, 101 kPa): 0.9885 ± 0.0098 mPa·s

CC[N+](CC)(CC)CC.[OH-]
viscosity (298.15 K, 100 kPa): 4.94 ± 0.1 mPa·s | viscosity (298.15 K, 101 kPa): 4.94 mPa·s | viscosity (303.15 K, 100 kPa): 4.72 ± 0.1 mPa·s | viscosity (303.15 K, 101 kPa): 4.72 mPa·s | viscosity (308.15 K, 100 kPa): 4.43 ± 0.09 mPa·s | viscosity (308.15 K, 101 kPa): 4.43 mPa·s | viscosity (313.15 K, 100 kPa): 4.27 ± 0.09 mPa·s | viscosity (313.15 K, 101 kPa): 4.27 mPa·s

C#CC(C)(C)O
viscosity (308.15 K, 101.32 kPa): 2.09 ± 0.033 mPa·s | viscosity (313.15 K, 101.32 kPa): 1.775 ± 0.028 mPa·s | viscosity (318.15 K, 101.32 kPa): 1.551 ± 0.025 mPa·s | viscosity (323.15 K, 101.32 kPa): 1.347 ± 0.022 mPa·s

COCCO
viscosity (293.15 K, 101 kPa): 1.78 ± 0.02 mPa·s | viscosity (298.15 K, 100 kPa): 1.649 ± 0.015 mPa·s and 1.563 ± 0.032 mPa·s | viscosity (298.15 K, 101.3 kPa): 1.522 ± 0.077 mPa·s and 1.695 ± 0.022 mPa·s | viscosity (298.15 K, 101.33 kPa): 1.552 ± 0.014 mPa·s | viscosity (303.15 K, 100 kPa): 1.457 ± 0.013 mPa·s | viscosity (303.15 K, 101.3 kPa): 1.381 ± 0.07 mPa·s and 1.525 ± 0.02 mPa·s and 1.376 ± 0.016 mPa·s | viscosity (303.15 K, 101.33 kPa): 1.476 ± 0.038 mPa·s | viscosity (308.15 K, 100 kPa): 1.292 ± 0.012 mPa·s | viscosity (308.15 K, 101.3 kPa): 1.242 ± 0.008 mPa·s and 1.368 ± 0.018 mPa·s | viscosity (313.15 K, 100 kPa): 1.15 ± 0.011 mPa·s and 1.188 ± 0.025 mPa·s | viscosity (313.15 K, 101.3 kPa): 1.151 ± 0.058 mPa·s and 1.155 ± 0.048 mPa·s | viscosity (313.15 K, 101.33 kPa): 1.2 ± 0.009 mPa·s and 1.189 ± 0.032 mPa·s | viscosity (318.15 K, 101.33 kPa): 1.098 ± 0.009 mPa·s and 1.04 ± 0.007 mPa·s and 1.042 ± 0.009 mPa·s | viscosity (323.15 K, 101 kPa): 0.931 ± 0.056 mPa·s and 0.9856 ± 0.007 mPa·s and 0.965 ± 0.013 mPa·s | viscosity (323.15 K, 101.3 kPa): 0.9746 ± 0.049 mPa·s

CCCC[N+](C)(CCCC)CCCC.N#C[N-]C#N
viscosity (293.15 K, 101 kPa): 497.7 ± 40 mPa·s | viscosity (303.15 K, 101 kPa): 238.9 ± 15 mPa·s | viscosity (313.15 K, 101 kPa): 127.3 ± 6.3 mPa·s | viscosity (323.15 K, 101 kPa): 74.87 ± 3.2 mPa·s

CCN(C=O)CC
viscosity (298.15 K, 101 kPa): 1.25 ± 0.03 mPa·s | viscosity (298.15 K, 101.33 kPa): 1.254 ± 0.008 mPa·s | viscosity (298.16 K, 101 kPa): 1.139 ± 0.011 mPa·s | viscosity (308.15 K, 101 kPa): 1.03 ± 0.03 mPa·s | viscosity (323.15 K, 101 kPa): 0.86 ± 0.02 mPa·s | viscosity (323.15 K, 101.33 kPa): 0.851 ± 0.006 mPa·s

CCCCCCCC[n+]1ccc2ccccc2c1.O=S(=O)([N-]S(=O)(=O)C(F)(F)F)C(F)(F)F
viscosity (298.15 K, 101 kPa): 369.3 ± 25 mPa·s and 369.3 ± 14 mPa·s | viscosity (308.15 K, 101 kPa): 191 ± 8.9 mPa·s and 191 ± 5.4 mPa·s | viscosity (318.15 K, 101 kPa): 108.7 ± 3.6 mPa·s and 108.7 ± 2.2 mPa·s
